US20070299110A1, “Novel Tetrazole Derivatives as Positive Allosteric Modulators of Metabotropic Glutamate” (priority 2004, published 2007)

Assays:
Male C57BL6/j mice = assay: Amphetamine-induced locomotor activity in mice (amphetamine model of schizophrenia); format: in vivo; settings: 30 mg/kg ip, 30 minutes before amphetamine sulphate 3.0 mg/kg s.c., distance traveled measured for 60 minutes, p<0.01 vs vehicle-amphetamine
Excerpt: Amphetamine-induced increases in locomotor ambulation are well known and are widely used as a model of the positive symptoms of schizophrenia. This model is based on evidence that amphetamine increases motor behaviors and can induce a psychotic state in humans (Yui et al. (2000) Ann NY Acad Sci 914:1-12). Further, it is well known that amphetamine-induced increases in locomotor activity are blocked by antipsychotics drugs that are effective in the treatment of schizophrenia (Ant (1995) Eur J Pharmacol 283:55-62). […]
Assessment of locomotor (ambulatory) activity: The effects of compounds on amphetamine-induced locomotor activation in mice were tested. […] Locomotor activity (ambulations) was monitored by a videotracking system (VideoTrack, Viewpoint, Champagne au Mont d'Or, France) that recorded the ambulatory movements of mice. […] Mice were placed into the locomotor boxes immediately after the amphetamine injection and their locomotor activity, defined as the distance traveled in centimeters (cm), was measured for 60 minutes. […]
Statistical analyses: Statistical analyses were performed using GraphPad PRISM statistical software (GraphPad, San Diego, Calif., USA). Data were analyzed using an unpaired t-test. […]

Row | SMILES | melting point [°C] | increase in locomotor activity induced by amphetamine (Male C57BL6/j mice; listed as #1) | increase in locomotor activity induced by amphetamine (Male C57BL6/j mice; listed as example 1)
1 | O=C(c1ccc(F)cc1)N1CCC[C@H](n2nnc(-c3ccc(F)cc3)n2)C1 [Example 1, (4-Fluoro-phenyl)-{(S)-3-[5-(4-fluoro-phenyl)-tetrazol-2-yl]-piperidin-1-yl}-methanone] | 109 to 110 | significantly attenuate | significantly attenuated
2 | O=C(c1ccc(F)cc1)N1CCCC(n2nnc(-c3ccc(F)cc3)n2)C1 (stereo not shown) [Example 2, (4-Fluoro-phenyl)-{3-[5-(4-fluoro-phenyl)-tetrazol-2-yl]-piperidin-1-yl}-methanone] | 137 to 139 | – | –
3 | O=C(c1ccc(F)nc1)N1CCC[C@H](n2nnc(-c3ccc(F)cc3)n2)C1 [Example 21, {(S)-3-[5-(4-Fluoro-phenyl)-tetrazol-2-yl]-piperidin-1-yl}-(6-fluoro-pyridin-3-yl)-methanone] | 109 to 110 | – | –
4 | O=C(c1ccc(F)c(F)c1)N1CCC[C@H](n2nnc(-c3ccc(F)cc3)n2)C1 [Example 24, (3,4-Difluoro-phenyl)-{(S)-3-[5-(4-fluoro-phenyl)-tetrazol-2-yl]-piperidin-1-yl}-methanone] | 123 to 128 | – | –
5 | O=C(c1ccc(F)cc1F)N1CCC[C@H](n2nnc(-c3ccc(F)cc3)n2)C1 [Example 25, (2,4-Difluoro-phenyl)-{(S)-3-[5-(4-fluoro-phenyl)-tetrazol-2-yl]-piperidin-1-yl}-methanone] | 65 to 68 | – | –
